# Bridge positions count the residues as written; N and C are the ends. Square brackets hold non-standard residues; d marks the D form. Peptide text beside a SMILES is read from it. * marks the point of attachment. Heptanoyl(6-Me) = CC(C)CCCCC(=O)*; Dab = NCC[C@H](N)C(=O)O
# System: Klebsiella pneumoniae
# Assay: MALDI-TOF detection of released characteristic proteins, 10 min at 50° C., filtration (examples V, VI)
# Format: cell-based
# Conditions: for Aire sous la courbe des pics observés, Protéine ribosomique 50S L29 / Aire sous la courbe des pics observés, Protéine ribosomique 50S L31 / Aire sous la courbe des pics observés, Protéine ribosomique 50S L34 / Aire sous la courbe des pics observés, US9 / Ratio par protéine 6290/Colistine / Ratio par protéine 8308/Colistine / Ratio par protéine CsbD/Colistine / Ratio par protéine DNA BP H-NS/Colistine / Ratio par protéine L29/Colistine / Ratio par protéine L31/Colistine / Ratio par protéine L34/Colistine / Ratio par protéine US9/Colistine / Somme des ratios / Aire sous la courbe des pics observés, 6290 / Aire sous la courbe des pics observés, 8308 / Aire sous la courbe des pics observés, CsbD domain-containing protein / Aire sous la courbe des pics observés, DNA binding protein H-NS / sensitivity or resistance to colistin by MALDI-TOF: colistin 2.5 mg/ml, 10 min 50° C.; for classification by sum of the ratios against threshold: threshold 0.45
# Procedure: The tests were carried out using the following steps: • preparing a suspension of microorganism at 2 McF in water (suspension medium, bioMérieux reference 70700), • preparing a solution of colistin sulfate (Sigma reference C4461) at a concentration of 2× in pure water (taking into account the colistin titer indicated by the manufacturer).
# The proteins characteristic of the species Klebsiella pneumoniae are the DNA binding protein H-NS, the ribosomal proteins L29, L31, L34 and US9, the cold shock protein containing a CsbD domain (CsbD domain-containing protein), and the uncharacterized proteins with m/z 6290 and 8308. These proteins are characterized respectively by the peaks at 7705 (DNA binding protein H-NS), 7274 (L29), 7743 (L31), 5381 (L34), 7384 (US9), 8309 (CsbD), more or less 1000 parts per million (ppm). For their part, the hypothetical proteins are characterized by peaks at 6290 and […], more or less 1000 parts per million (ppm).
# In the context of this example, the tests were carried out with the method of the present invention to determine the sensitivity or resistance of several bacteria of several strains such as in example V and comprising the following steps: • measuring the intensity of each peak observed, • finding a ratio between the sum of the intensities of the protein peaks of the microorganism and at least 1 peak of colistin. • determining the status, resistant or sensitive to colistin, as a function of the sum of the ratios obtained and of a threshold fixed for each species. • a resistant microorganism will have a low ratio and a sensitive microorganism will have a high ratio.
# The K. pneumoniae strains KP S10-1, KP S10-2, KP S15-1, KP S15-2, KP R9-1, KP R9-2, KP R16-1 and KP R16-2 are also studied and the proteins characteristic of the species K. pneumoniae are analyzed. These characteristic proteins are the DNA binding protein H-NS, the ribosomal proteins L29, L31, L34 and US9, the cold shock protein containing a CsbD domain (CsbD domain-containing protein), and the uncharacterized proteins with m/z 6290 and 8308.
compound,measurement,setting,value
CC(C)CCCCC(=O)N[C@@H](CCN)C(=O)N[C@H](C(=O)N[C@@H](CCN)C(=O)N[C@H]1CCNC(=O)[C@H]([C@@H](C)O)NC(=O)[C@H](CCN)NC(=O)[C@H](CCN)NC(=O)[C@H](CC(C)C)NC(=O)[C@@H](CC(C)C)NC(=O)[C@H](CCN)NC1=O)[C@@H](C)O [colistin] ({Heptanoyl(6-Me)}-[Dab]T[Dab][Dab][Dab][dL]L[Dab][Dab]T; lactam 4-C),"Aire sous la courbe des pics observés, Protéine ribosomique 50S L29",strain KP S10-1,474 unité arbitraire
same,"Aire sous la courbe des pics observés, Protéine ribosomique 50S L31",strain KP S10-1,321 unité arbitraire
same,"Aire sous la courbe des pics observés, Protéine ribosomique 50S L34",strain KP S10-1,0 unité arbitraire
same,"Aire sous la courbe des pics observés, US9",strain KP S10-1,297 unité arbitraire
same,Ratio par protéine 6290/Colistine,strain KP S10-1,0.55
same,Ratio par protéine 8308/Colistine,strain KP S10-1,0.14
same,Ratio par protéine CsbD/Colistine,strain KP S10-1,0.00
same,Ratio par protéine DNA BP H-NS/Colistine,strain KP S10-1,0.25
same,Ratio par protéine L29/Colistine,strain KP S10-1,0.31
same,Ratio par protéine L31/Colistine,strain KP S10-1,0.21
same,Ratio par protéine L34/Colistine,strain KP S10-1,0.00
same,Ratio par protéine US9/Colistine,strain KP S10-1,0.20
same,Somme des ratios,strain KP S10-1,1.66
same,"Aire sous la courbe des pics observés, 6290",strain KP S10-2,146 unité arbitraire
same,"Aire sous la courbe des pics observés, 8308",strain KP S10-2,54 unité arbitraire
same,"Aire sous la courbe des pics observés, CsbD domain-containing protein",strain KP S10-2,0 unité arbitraire
same,"Aire sous la courbe des pics observés, DNA binding protein H-NS",strain KP S10-2,119 unité arbitraire
same,"Aire sous la courbe des pics observés, Protéine ribosomique 50S L29",strain KP S10-2,124 unité arbitraire
same,"Aire sous la courbe des pics observés, Protéine ribosomique 50S L31",strain KP S10-2,76 unité arbitraire
same,"Aire sous la courbe des pics observés, Protéine ribosomique 50S L34",strain KP S10-2,134 unité arbitraire
same,"Aire sous la courbe des pics observés, US9",strain KP S10-2,77 unité arbitraire
same,Ratio par protéine 6290/Colistine,strain KP S10-2,0.17
same,Ratio par protéine 8308/Colistine,strain KP S10-2,0.06
same,Ratio par protéine CsbD/Colistine,strain KP S10-2,0.00
same,Ratio par protéine DNA BP H-NS/Colistine,strain KP S10-2,0.14
same,Ratio par protéine L29/Colistine,strain KP S10-2,0.15
same,Ratio par protéine L31/Colistine,strain KP S10-2,0.09
same,Ratio par protéine L34/Colistine,strain KP S10-2,0.16
same,Ratio par protéine US9/Colistine,strain KP S10-2,0.09
same,Somme des ratios,strain KP S10-2,0.86
same,"Aire sous la courbe des pics observés, 6290",strain KP S15-1,215 unité arbitraire
same,"Aire sous la courbe des pics observés, 8308",strain KP S15-1,0 unité arbitraire
same,"Aire sous la courbe des pics observés, CsbD domain-containing protein",strain KP S15-1,248 unité arbitraire
same,"Aire sous la courbe des pics observés, DNA binding protein H-NS",strain KP S15-1,0 unité arbitraire
same,"Aire sous la courbe des pics observés, Protéine ribosomique 50S L29",strain KP S15-1,0 unité arbitraire
same,"Aire sous la courbe des pics observés, Protéine ribosomique 50S L31",strain KP S15-1,0 unité arbitraire
same,"Aire sous la courbe des pics observés, Protéine ribosomique 50S L34",strain KP S15-1,0 unité arbitraire
same,"Aire sous la courbe des pics observés, US9",strain KP S15-1,150 unité arbitraire
same,Ratio par protéine 6290/Colistine,strain KP S15-1,0.24
same,Ratio par protéine 8308/Colistine,strain KP S15-1,0.00
same,Ratio par protéine CsbD/Colistine,strain KP S15-1,0.28
same,Ratio par protéine DNA BP H-NS/Colistine,strain KP S15-1,0.00
same,Ratio par protéine L29/Colistine,strain KP S15-1,0.00
same,Ratio par protéine L31/Colistine,strain KP S15-1,0.00
same,Ratio par protéine L34/Colistine,strain KP S15-1,0.00
same,Ratio par protéine US9/Colistine,strain KP S15-1,0.17
same,Somme des ratios,strain KP S15-1,0.68
same,"Aire sous la courbe des pics observés, 6290",strain KP S15-2,141 unité arbitraire
same,"Aire sous la courbe des pics observés, 8308",strain KP S15-2,0 unité arbitraire
same,"Aire sous la courbe des pics observés, CsbD domain-containing protein",strain KP S15-2,237 unité arbitraire
same,"Aire sous la courbe des pics observés, DNA binding protein H-NS",strain KP S15-2,0 unité arbitraire
same,"Aire sous la courbe des pics observés, Protéine ribosomique 50S L29",strain KP S15-2,0 unité arbitraire
same,"Aire sous la courbe des pics observés, Protéine ribosomique 50S L31",strain KP S15-2,0 unité arbitraire
same,"Aire sous la courbe des pics observés, Protéine ribosomique 50S L34",strain KP S15-2,0 unité arbitraire
same,"Aire sous la courbe des pics observés, US9",strain KP S15-2,92 unité arbitraire
same,Ratio par protéine 6290/Colistine,strain KP S15-2,0.14
same,Ratio par protéine 8308/Colistine,strain KP S15-2,0.00
same,Ratio par protéine CsbD/Colistine,strain KP S15-2,0.23
same,Ratio par protéine DNA BP H-NS/Colistine,strain KP S15-2,0.00
same,Ratio par protéine L29/Colistine,strain KP S15-2,0.00
same,Ratio par protéine L31/Colistine,strain KP S15-2,0.00
same,Ratio par protéine L34/Colistine,strain KP S15-2,0.00
same,Ratio par protéine US9/Colistine,strain KP S15-2,0.088
same,Somme des ratios,strain KP S15-2,0.45
same,classification by sum of the ratios against threshold,strain KP-R9,resistant (the strains whose sum of the ratios is strictly below 0.45 will be considered as resistant)
same,classification by sum of the ratios against threshold,strain KP-R16,resistant (the strains whose sum of the ratios is strictly below 0.45 will be considered as resistant)
same,classification by sum of the ratios against threshold,strain KP-S10,sensitive (the strains whose sum of the ratios is greater than or equal to 0.45 will be considered as sensitive)
same,classification by sum of the ratios against threshold,strain KP-S15,sensitive (the strains whose sum of the ratios is greater than or equal to 0.45 will be considered as sensitive)
same,sensitivity or resistance to colistin by MALDI-TOF,strain KP_R9,resistant
same,sensitivity or resistance to colistin by MALDI-TOF,strain KP_R16,resistant
same,sensitivity or resistance to colistin by MALDI-TOF,strain KP_S10,sensitive
same,sensitivity or resistance to colistin by MALDI-TOF,strain KP_S15,sensitive
